# The supplement of paper PMC10307832
# Assays:
# Assay in all cases: relative viability (nuclei count vs DMSO), 5 days (fraction); higher = more cells survive
# [1] = compound: CC1=C(C=CC(=C1)[N+](=O)[O-])NS(=O)(=O)C2=C(C=CC(=C2)Cl)Cl [FH535] + Cc1nc(Nc2ncc(C(=O)Nc3c(C)cccc3Cl)s2)cc(N2CCN(CCO)CC2)n1 [Dasatinib] (partner 0.075 µM)
# Procedure, shortened: (§1)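 Relative viability was taken as the ratio of nuclei in treated wells to nuclei in vehicle wells. Lung cancer cell lines in 1536-well plates received compounds by pin tool one day after seeding, either one drug alone or a fixed anchor-drug dose plus five library-drug doses (not always all listed) in √10 steps. Nuclei were counted on 4× images after 5 days of treatment, and values are medians of duplicate plates.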
# [2] = compound: CC1=C(C=CC(=C1)[N+](=O)[O-])NS(=O)(=O)C2=C(C=CC(=C2)Cl)Cl [FH535] + CC1(C)CCC(c2ccc(Cl)cc2)=C(CN2CCN(c3ccc(C(=O)NS(=O)(=O)c4ccc(N[C@H](CCN5CCOCC5)CSc5ccccc5)c(S(=O)(=O)C(F)(F)F)c4)cc3)CC2)C1 [Navitoclax] (partner 0.5 µM)
# Procedure, shortened: as §1
# [3] = compound: CC1=C(C=CC(=C1)[N+](=O)[O-])NS(=O)(=O)C2=C(C=CC(=C2)Cl)Cl [FH535] + COc1cc2c(Oc3ccc(NC(=O)C4(C(=O)Nc5ccc(F)cc5)CC4)cc3F)ccnc2cc1OCCCN1CCOCC1 [Foretinib] (partner 0.25 µM)
# Procedure, shortened: as §1
# [4] = compound: CC1=C(C=CC(=C1)[N+](=O)[O-])NS(=O)(=O)C2=C(C=CC(=C2)Cl)Cl [FH535] + O=C(c1cc(Cc2n[nH]c(=O)c3ccccc23)ccc1F)N1CCN(C(=O)C2CC2)CC1 [Olaparib] (partner 8 µM)
# Procedure, shortened: as §1
# [5] = compound: CC1=C(C=CC(=C1)[N+](=O)[O-])NS(=O)(=O)C2=C(C=CC(=C2)Cl)Cl [FH535] + Nc1ncn([C@H]2C[C@H](O)[C@@H](CO)O2)c(=O)n1 [Decitabine] (partner 2 µM)
# Procedure, shortened: as §1
Cell Line,relative viability ([1]; first compound 0.04 µM),relative viability ([1]; first compound 0.1265 µM),relative viability ([1]; first compound 0.4 µM),relative viability ([1]; first compound 1.265 µM),relative viability ([2]; first compound 0.04 µM),relative viability ([2]; first compound 0.1265 µM),relative viability ([2]; first compound 0.4 µM),relative viability ([2]; first compound 1.265 µM),relative viability ([3]; first compound 0.04 µM),relative viability ([3]; first compound 0.1265 µM),relative viability ([3]; first compound 0.4 µM),relative viability ([3]; first compound 1.265 µM),relative viability ([4]; first compound 0.04 µM),relative viability ([4]; first compound 0.1265 µM),relative viability ([4]; first compound 0.4 µM),relative viability ([4]; first compound 1.265 µM),relative viability ([5]; first compound 0.04 µM),relative viability ([5]; first compound 0.1265 µM),relative viability ([5]; first compound 0.4 µM),relative viability ([5]; first compound 1.265 µM)
NCI-H1651,0.397,0.419,0.284,0.201,1.15,1.2,1.05,0.864,0.888,0.856,0.697,0.584,0.174,0.194,0.188,0.184,0.562,0.602,0.622,0.447
LC-2-ad,0.417,0.571,0.437,0.409,0.34,0.491,0.549,0.325,0.807,0.981,0.872,0.853,0.74,0.703,0.713,0.526,0.773,0.892,0.764,0.713
HCC-827,0.35,0.291,0.273,0.364,0.994,1.08,0.973,0.732,1.03,1.07,0.975,0.587,0.627,0.676,0.574,0.359,0.297,0.334,0.323,0.296
SW 1573,0.42,0.414,0.344,0.454,0.938,1.01,0.837,0.768,0.784,0.944,1.01,0.89,0.399,0.497,0.473,0.34,0.464,0.515,0.52,0.411
COR-L 105,0.292,0.325,0.314,0.333,0.725,0.864,0.702,0.637,0.936,1.25,0.794,1.02,0.693,0.699,0.747,0.648,0.634,0.735,0.64,0.687
LOU-NH91,0.573,0.613,0.388,0.267,0.602,0.736,0.695,0.233,0.99,0.952,0.91,0.474,0.876,0.905,0.793,0.421,0.759,0.823,0.788,0.64
NCI-H727,0.405,0.434,0.364,0.402,0.479,0.39,0.369,0.381,1.04,0.637,0.925,0.684,0.746,0.675,0.527,0.549,0.845,0.945,0.851,0.877
LU99A,0.435,0.439,0.468,0.507,0.716,0.667,0.844,0.844,0.706,0.865,0.736,0.761,0.246,0.28,0.274,0.283,0.789,0.944,0.841,0.794
NCI-H1650,0.281,0.299,0.3,0.297,1.17,1.27,1.17,0.856,0.966,1.28,1.01,0.825,0.841,0.741,0.698,0.641,0.323,0.427,0.46,0.442
UMC-11,0.446,0.454,0.416,0.422,0.312,0.315,0.298,0.262,0.967,1.13,1.03,0.88,0.288,0.335,0.367,0.343,0.609,0.529,0.594,0.576
HOP-62,0.604,0.571,0.533,0.57,0.997,1.08,0.916,0.779,1.06,1.04,1.03,0.933,0.278,0.36,0.4,0.453,0.232,0.196,0.23,0.227
NCI-H23,0.769,0.529,0.61,0.731,–,0.821,0.818,0.703,0.469,1.07,0.953,0.636,0.255,0.331,0.3,0.273,0.299,0.31,0.347,0.318
NCI-H1734,–,0.507,0.476,0.431,0.802,0.902,0.86,0.735,–,0.91,0.886,0.773,0.539,0.715,0.635,0.613,0.501,0.501,0.56,0.471
EKVX,0.336,0.705,0.511,0.243,0.976,0.849,0.924,0.789,0.792,0.629,0.744,0.587,0.737,0.906,0.903,0.762,0.373,0.413,0.331,0.27
HARA,0.358,0.194,0.205,0.182,1.14,1.17,1.15,0.931,0.814,0.969,0.88,0.477,0.588,0.873,0.829,0.353,0.578,0.475,0.552,0.414
EMC-BAC-2,0.302,0.358,0.317,0.319,1.17,1.19,1.2,1.02,0.978,0.97,0.997,0.809,0.445,0.467,0.46,0.442,0.885,1,0.985,0.892
